{"source": "patent US9216173B2", "about": "“2-Pyridyl carboxamide-containing spleen tyrosine kinase (SYK) inhibitors” (Merck Sharp & Dohme Corp., priority 2011, dated 2015)"}
{"target": "T1, recombinant human GST-SYK (Homo sapiens, UniProt P43405)", "T1 construct": "purchased Carna Biosciences 08-176", "assay": "Homogeneous Time-Resolved Fluorescence (HTRF) assay for the recombinant human Syk enzyme", "assay_type": "biochemical", "details": "GST-hSYK 5 pM, ATP 25 μM, 10-dose titration 10 μM to 0.508 nM; read-out: IC50", "description": "(§1) Homogeneous Time-Resolved Fluorescence (HTRF) Assay for the Recombinant Human Syk Enzyme\n(§2) A recombinant GST-hSYK fusion protein was used to measure potency of compounds to inhibit human Syk activity. […] Final volume of the reaction was 10 μL. Phosphorylation of the peptide was allowed to proceed for 45 minutes at room temperature. To quench the reaction and detect the phosphorylated product, 2 nM of a Europium-anti-phosphotyrosine antibody (Perkin Elmer #AD0161) and 70 nM SA-APC (Perkin-Elmer #CR130-100) were added together in 15 mM Tris pH 7.5, 40 mM EDTA, 0.01% tween 20. Final volume of the quenching solution was 10 μL. The resulting HTRF signal was measured after 30 minutes on an EnVision (Perkin-Elmer) reader using a time-resolved fluorescence protocol.", "units": {"IC50": "nM"}}
{"smiles": "Cn1ccc(Nc2cc(N[C@H]3[C@@H](N)CCCC3(F)F)cnc2C(N)=O)n1", "note": "[Example 1.86, 5-{[(1S,6S)-6-amino-2,2-difluorocyclohexyl]amino}-3-[(1-methyl-1H-pyrazol-3-yl)amino]pyridine-2-carboxamide]", "IC50": 63}
{"smiles": "CCC(CN)Nc1cnc(C(N)=O)c(Nc2ccn(C)n2)c1", "note": "(stereo not shown) [Example 1.95, 5-{[1-(aminomethyl)propyl]amino}-3-[(1-methyl-1H-pyrazol-3-yl)amino]pyridine-2-carboxamide]", "IC50": 120}
{"target": "T1, recombinant human GST-SYK", "assay": "Homogeneous Time-Resolved Fluorescence (HTRF) assay for the recombinant human Syk enzyme", "assay_type": "biochemical", "details": "GST-hSYK 5 pM, ATP 25 μM, 10-dose titration 10 μM to 0.508 nM; read-out: rhSYK Activity (IC50 rating)", "description": "as §1, §2", "units": {"IC50": "nM"}}
{"smiles": "Cc1nc(Nc2cc(N[C@@H]3CCCC[C@@H]3N)cnc2C(N)=O)ccc1-n1ccnn1", "note": "[Example 1.74, 5-{[(1R,2S)-2-aminocyclohexyl]amino}-3-{[6-methyl-5-(1H-1,2,3-triazol-1-yl)pyridin-2-yl]amino}pyridine-2-carboxamide]", "IC50": "< 10"}
{"smiles": "Cc1cc(-n2ccnn2)cc(Nc2cc(N[C@@H]3CCCC[C@@H]3N)cnc2C(N)=O)n1", "note": "[Example 1.75, 5-{[(1R,2S)-2-aminocyclohexyl]amino}-3-{[6-methyl-4-(1H-1,2,3-triazol-1-yl)pyridin-2-yl]amino}pyridine-2-carboxamide]", "IC50": "< 10"}
{"smiles": "Cc1cc(-n2nccn2)cc(Nc2cc(N[C@@H]3CCCC[C@@H]3N)cnc2C(N)=O)n1", "note": "[Example 1.76, 5-{[(1R,2S)-2-aminocyclohexyl]amino}-3-{[6-methyl-4-(2H-1,2,3-triazol-2-yl)pyridin-2-yl]amino}pyridine-2-carboxamide]", "IC50": "< 10"}
{"smiles": "Cc1cc(N2CCOCC2)cc(Nc2cc(N[C@@H]3CCCC[C@@H]3N)cnc2C(N)=O)n1", "note": "[Example 1.77, 5-{[(1R,2S)-2-aminocyclohexyl]amino}-3-[(6-methyl-4-morpholin-4-ylpyridin-2-yl)amino]pyridine-2-carboxamide]", "IC50": "< 10"}
{"smiles": "Cc1ccc(-n2nc(Nc3cc(N[C@@H]4CCCC[C@@H]4N)cnc3C(N)=O)cc2C)cc1", "note": "[Example 1.79, 5-{[(1R,2S)-2-aminocyclohexyl]amino}-3-{[5-methyl-1-(4-methylphenyl)-1H-pyrazol-3-yl]amino}pyridine-2-carboxamide]", "IC50": "< 10"}
{"smiles": "Cc1cccc(-n2ccc(Nc3cc(N[C@@H]4CCCC[C@@H]4N)cnc3C(N)=O)n2)c1", "note": "[Example 1.80, 5-{[(1R,2S)-2-aminocyclohexyl]amino}-3-{[1-(3-methylphenyl)-1H-pyrazol-3-yl]amino}pyridine-2-carboxamide]", "IC50": "< 10"}
{"smiles": "NC(=O)c1ncc(N[C@@H]2CCCC[C@@H]2N)cc1Nc1ccn(-c2ccccn2)n1", "note": "[Example 1.81, 5-{[(1R,2S)-2-aminocyclohexyl]amino}-3-[(1-pyridin-2-yl-1H-pyrazol-3-yl)amino]pyridine-2-carboxamide]", "IC50": "< 10"}
{"smiles": "COC[C@H](N)CNc1cnc(C(N)=O)c(Nc2cccc(-n3nccn3)n2)c1", "note": "[Example 1.82, 5-{[(2R)-2-amino-3-methoxypropyl]amino}-3-{[6-(2H-1,2,3-triazol-2-yl)pyridin-2-yl]amino}pyridine-2-carboxamide]", "IC50": "< 10"}
{"smiles": "NC(=O)c1ncc(N[C@H]2[C@@H](N)CCCC2(F)F)cc1Nc1cccc(-n2nccn2)n1", "note": "[Example 1.83, 5-{[(1S,6S)-6-amino-2,2-difluorocyclohexyl]amino}-3-{[6-(2H-1,2,3-triazol-2-yl)pyridin-2-yl]amino}pyridine-2-carboxamide]", "IC50": "< 10"}
{"smiles": "CCC(CN)Nc1cnc(C(N)=O)c(Nc2cccc(-n3nccn3)n2)c1", "note": "(stereo not shown) [Example 1.85, 5-{[1-(aminomethyl)propyl]amino}-3-{[6-(2H-1,2,3-triazol-2-yl)pyridin-2-yl]amino}pyridine-2-carboxanmle]", "IC50": "< 10"}
{"smiles": "Cn1ccc(Nc2cc(N[C@H]3[C@@H](N)CCCC3(F)F)cnc2C(N)=O)n1", "note": "[Example 1.86, 5-{[(1S,6S)-6-amino-2,2-difluorocyclohexyl]amino}-3-[(1-methyl-1H-pyrazol-3-yl)amino]pyridine-2-carboxamide]", "IC50": "10 to 100"}
{"smiles": "NC(=O)c1ncc(N[C@H]2[C@@H](N)CCCC2(F)F)cc1Nc1ccn(-c2ccc(F)cc2)n1", "note": "[Example 1.87, 5-{[(1S,6S)-6-amino-2,2-difluorocyclohexyl]amino}-3-{[1-(4-fluorophenyl)-1H-pyrazol-3-yl]amino}pyridine-2-carboxamide]", "IC50": "< 10"}
{"smiles": "CCc1cccc(Nc2cc(N[C@H]3[C@@H](N)CCCC3(F)F)cnc2C(N)=O)n1", "note": "[Example 1.88, 5-{[(1S,6S)-6-amino-2,2-difluorocyclohexyl]amino}-3-[(6-ethylpyridin-2-yl)amino]pyridine-2-carboxamide]", "IC50": "< 10"}
{"smiles": "C[C@H](N)CNc1cnc(C(N)=O)c(Nc2ccn(C)n2)c1", "note": "[Example 1.92, 5-{[(2S)-2-aminopropyl]amino}-3-[(1-methyl-1H-pyrazol-3-yl)amino]pyridine-2-carboxamide]", "IC50": "10 to 100"}
{"smiles": "C[C@H](N)CNc1cnc(C(N)=O)c(Nc2ccn(-c3ccc(F)cc3)n2)c1", "note": "[Example 1.93, 5-{[(2S)-2-aminopropyl]amino}-3-{[1-(4-fluorophenyl)-1H-pyrazol-3-yl]amino}pyridine-2-carboxamide]", "IC50": "< 10"}
{"smiles": "CCc1cccc(Nc2cc(NC[C@H](C)N)cnc2C(N)=O)n1", "note": "[Example 1.94, 5-{[(2S)-2-aminopropyl]amino}-3-[(6-ethylpyridin-2-yl)amino]pyridine-2-carboxamide]", "IC50": "< 10"}
{"smiles": "CCC(CN)Nc1cnc(C(N)=O)c(Nc2ccn(C)n2)c1", "note": "(stereo not shown) [Example 1.95, 5-{[1-(aminomethyl)propyl]amino}-3-[(1-methyl-1H-pyrazol-3-yl)amino]pyridine-2-carboxamide]", "IC50": "100 to 1000"}
{"smiles": "CCC(CN)Nc1cnc(C(N)=O)c(Nc2ccn(-c3ccc(F)cc3)n2)c1", "note": "(stereo not shown) [Example 1.96, 5-{[1-(aminomethyl)propyl]amino}-3-{[1-(4-fluorophenyl)-1H-pyrazol-3-yl]amino}pyridine-2-carboxamide]", "IC50": "< 10"}
{"smiles": "CCc1cccc(Nc2cc(NC(CC)CN)cnc2C(N)=O)n1", "note": "(stereo not shown) [Example 1.97, 5-{[1-(aminomethyl)propyl]amino}-3-[(6-ethylpyridin-2-yl)amino]pyridine-2-carboxamide]", "IC50": "< 10"}
{"smiles": "COC[C@H](N)CNc1cnc(C(N)=O)c(Nc2ccn(C)n2)c1", "note": "[Example 1.98, 5-{[(2R)-2-amino-3-methoxypropyl]amino}-3-[(1-methyl-1H-pyrazol-3-yl)amino]pyridine-2-carboxamide]", "IC50": "100 to 1000"}
{"smiles": "COC[C@H](N)CNc1cnc(C(N)=O)c(Nc2ccn(-c3ccc(F)cc3)n2)c1", "note": "[Example 1.99, 5-{[(2R)-2-amino-3-methoxypropyl]amino}-3-{[1-(4-fluorophenyl)-1H-pyrazol-3-yl]amino}pyridine-2-carboxamide]", "IC50": "< 10"}
{"smiles": "CCc1cccc(Nc2cc(NC[C@@H](N)COC)cnc2C(N)=O)n1", "note": "[Example 1.100, 5-{[(2R)-2-amino-3-methoxypropyl]amino}-3-[(6-ethylpyridin-2-yl)amino]pyridine-2-carboxamide]", "IC50": "< 10"}
{"smiles": "NC(=O)c1ncc(N[C@@H]2CCCC[C@@H]2N)cc1Nc1cccc(-c2cn(Cc3ccccc3)nn2)n1", "note": "[Example 1.101, 5-{[(1R,2S)-2-aminocyclohexyl]amino}-3-{[6-(1-benzyl-1H-1,2,3-triazol-4-yl)pyridin-2-yl]amino}pyridine-2-carboxamide]", "IC50": "< 10"}
{"smiles": "Cc1cc(Nc2cc(N[C@@H]3CCCC[C@@H]3N)cnc2C(N)=O)nc(-n2nccn2)c1", "note": "[Example 1.102, 5-{[(1R,2S)-2-aminocyclohexyl]amino}-3-{[4-methyl-6-(2H-1,2,3-triazol-2-yl)pyridin-2-yl]amino}pyridine-2-carboxamide]", "IC50": "< 10"}
{"smiles": "NC(=O)c1ncc(NCC2(N)CC2)cc1Nc1cccc(C(F)(F)F)n1", "note": "[Example 1.103, 5-{[(1-aminocyclopropyl)methyl]amino}-3-{[6-(trifluoromethyl)pyridin-2-yl]amino}pyridine-2-carboxamide]", "IC50": "< 10"}
{"smiles": "C[C@H](N)CNc1cnc(C(N)=O)c(Nc2cccc(C(F)(F)F)n2)c1", "note": "[Example 1.104, 5-{[(2S)-2-aminopropyl]amino}-3-{[6-(trifluoromethyl)pyridin-2-yl]amino}pyridine-2-carboxamide]", "IC50": "< 10"}
{"smiles": "COC[C@H](N)CNc1cnc(C(N)=O)c(Nc2cccc(C(F)(F)F)n2)c1", "note": "[Example 1.105, 5-{[(2R)-2-amino-3-methoxypropyl]amino}-3-{[6-(trifluoromethyl)pyridin-2-yl]amino}pyridine-2-carboxamide]", "IC50": "< 10"}
{"smiles": "NC(=O)c1ncc(N[C@H]2[C@@H](N)CCCC2(F)F)cc1Nc1cccc(C(F)(F)F)n1", "note": "[Example 1.106, 5-{[(1S,6S)-6-amino-2,2-difluorocyclohexyl]amino}-3-{[6-(trifluoromethyl)pyridin-2-yl]amino}pyridine-2-carboxamide]", "IC50": "< 10"}
{"smiles": "Cc1cc2ccsc2c(Nc2cc(N[C@@H]3CCCC[C@@H]3N)cnc2C(N)=O)n1", "note": "[Example 1.107, 5-{[(1R,2S)-2-aminocyclohexyl]amino}-3-[(5-methylthieno[2,3-c]pyridin-7-yl)amino]pyridine-2-carboxamide]", "IC50": "< 10"}
{"smiles": "Cc1cc(Nc2cc(N[C@@H]3CCCC[C@@H]3N)cnc2C(N)=O)nc(-c2cnn(C)c2)c1", "note": "[Example 1.110, 5-{[(1R,2S)-2-aminocyclohexyl]amino}-3-{[4-methyl-6-(1-methyl-1H-pyrazol-4-yl)pyridin-2-yl]amino}pyridine-2-carboxamide]", "IC50": "< 10"}
{"smiles": "COc1ccc(Nc2cc(N[C@@H]3CCCC[C@@H]3N)cnc2C(N)=O)nc1C", "note": "[Example 1.111, 5-{[(1R,2S)-2-aminocyclohexyl]amino}-3-[(5-methoxy-6-methylpyridin-2-yl)amino]pyridine-2-carboxamide]", "IC50": "< 10"}
{"smiles": "Cc1cc(Nc2cc(N[C@@H]3CCCC[C@@H]3N)cnc2C(N)=O)nc(-c2ccnn2C)c1", "note": "[Example 1.112, 5-{[(1R,2S)-2-aminocyclohexyl]amino}-3-{[4-methyl-6-(1-methyl-1H-pyrazol-5-yl)pyridin-2-yl]amino}pyridine-2-carboxamide]", "IC50": "< 10"}
